Converted amounts (≈) assume the structure as drawn.
What was measured:
[1] = test system: HTB10; experiment: sensitivity to killing by 2-deoxyglucose; type: cell-based, human
Description: (§1) The glucose requirements of CRL 5803 was also determined and compared to the HTB10 and CRL5816 cell lines.
(§2) The 2-deoxyglucose sensitivity was tested with the 4 cell lines being screened for CNS use with doses of 2-DG from 1-20 mM, the HTB10 cell line was also included in this screen as a positive control for 2-DG killing. […] However, 2-DG did result in slowed growth, and concentrations producing 50% inhibition (IC50) were calculated (based on a four-parameter fit of the data).

[2] = test system: four candidate cell lines; experiment: 2-deoxyglucose sensitivity (growth) of cell lines screened for CNS use; type: cell-based, human
Description: as §2

[3] = test system: CRL 5803; experiment: sensitivity to killing by 2-deoxyglucose; type: cell-based, human; details: up to 20 mM 2-DG
Description: as §1

[4] = test system: CRL5816 cells; experiment: sensitivity to killing by 2-deoxyglucose; type: cell-based, human; details: 10 mM 2-deoxyglucose, 4 days
[5] = test system: all cell lines except for ARPE-19 and A2058 (CRL 5803, CCL-205, CRL1440); experiment: sensitivity to 5-FU, growth monitored with resazurin; type: cell-based, human; details: all cell lines except ARPE-19 and A2058
[6] = test system: BON cell line; experiment: 5-FU cytotoxicity screen; type: cell-based; details: Homo sapiens, neutral red endpoint after 5-7 days, read-out: concentration required to kill 50% of the cells
Description: Drug Exposure and elimination of BON cell line: The drug 5-FU was dissolved in DMSO at a concentration of 0.5 M, and this stock used to make media with micromolar concentrations of the drug ([…]). Cells plated in 24 or 48 well plates in growth phase were cultured with 5-FU supplemented medium for 1-2 weeks. […] This growth measurement was conducted during exposure and if cells grew or survived, growth was followed in the weeks subsequent to removal of 5-FU.
In initial screening, an endpoint assay of viability was performed with the uptake of neutral red (50 μg/ml for 1 h) after 5-7 days, later studies of the selected cell lines used resazurin to monitor growth, as well as viable cell mass.

[7] = test system: A2058
Description: (§3) The newly selected cell types were then screened for r sensitivity to 5-fluorouracil (5-FU). This screening was accomplished by plating the cell lines in 48 well plates, and after overnight attachment adding varying concentrations of 5-FU from 0-500 μM. The growth of the cells was then monitored at 1-2 day intervals with the fluorescent substrate resazurin.

[8] = test system: ARPE-19 cells; experiment: sensitivity to 5-FU, growth monitored with resazurin
Description: as §3

[9] = test system: K3.31; experiment: 5FC and 5FU dose-response in BDNF-expressing CRL 5803 line and CD transfectants; type: cell-based; details: Homo sapiens; K3.31; read-out: IC50 for 5FU
Description: (§4) CRL 5803 cells expressing BDNF and CD: The CRL 5803 cell line was transfected with BDNF and clones expressing BDNF were selected. These selected clones were expanded to provide cells for transfections with cytosine deaminase plasmid (CX014). Four CD gene transfection studies were performed with three different BDNF-expressing cell lines. For each cell line at least 24 resistant clones were picked and screened for sensitivity to 100 μM 5FC. The clones with the lowest survival in 5FC (as percent of control wells) were then expanded for dose-response studies with 5FC and 5FU. Cytotoxicity of 5FC was used as an indication of CD gene expression, and this screen provided 6-9 clones per transfection. The IC50 for 5FU indicated the maximum potential cytotoxicity of the prodrug, 5FC, in cells expressing sufficient levels of CD gene and protein.

[10] = test system: K3.3; experiment: as above; type: cell-based; details: Homo sapiens; K3.3; read-out: IC50 for 5FU
Description: as §4

[11] = test system: K3.4; experiment: as above; type: cell-based; details: Homo sapiens, read-out: IC50 for 5-FU
Description: as §4

[12] = test system: human cell lines (CCL205, A2058, CRL1440, ARPE-19, CRL 5803); type: cell-based
[13] = test system: CRL1803; experiment: selection drug and ouabain sensitivity screen; type: cell-based, human; details: ouabain IC50 in the 10^-4 M range taken as resistance
Description: (§5) The cell lines were plated in 48 well plates at an appropriate dilution of cells for each cell line to provide for rapid entry into log phase of growth. The various concentrations of the selection drugs were added so that the drugs were present at the initiation of log phase growth and viable cells were determined after 7-10 days of culture. The screening used data for functional mass at the end of the study to express viable cells as a percentage of the vehicle, or no-treatment control wells. Each treatment concentration was based on results for at least 3-4 wells. The % viable cell mass data was plotted, and fitted typically with a four-parameter equation. The fitted equation was used to calculate the IC50 dose. The drugs tested were G418 (inactivated by neomycin phophotransferase, NPT), hygromycin (inactivated by hygromycin phosphotansferse, HPT), blasticidin (inactivated by blasticidin deaminase, BSD), and zeocin (bound by bleomycin binding protein, BBP). These antibiotics were obtained from Invitrogen/Gibco (Invitrogen SA, Barcelona). Cells were considered to be resistant if the IC50 was >1000 μg/ml for G418, hygromycin, and zeocin, or concentrations >20 μg/ml for blasticidin. Although ouabain is not a classical selection drug, the rodent gene for Na—K ATPase shifts the sensitivity into the 10^−4 M range, while human cells are sensitive in the 10^−9 to 10^−6 M range, thus IC50s in the 10^−4 M range were taken to indicate resistance.

[14] = test system: CRL5808; experiment: selection drug and ouabain sensitivity screen; type: cell-based, human; details: ouabain IC50 in the 10^-4 M range taken as resistance
Description: as §5

[15] = test system: CRL5867; experiment: selection drug and ouabain sensitivity screen; type: cell-based, human; details: resistant if IC50 >1000 μg/ml (G418, hygromycin), ouabain 10^-4 M range
Description: as §5

[16] = test system: CRL5803; type: cell-based, human
Description: as §5, with “Each treatment concentration was based on results for at least 3-4 wells.” left out, “Barcelona).” for “Barcelona). Cells were considered to be resistant if the IC50 was >1000 μg/ml for G418, hygromycin, and zeocin, or concentrations >20 μg/ml for blasticidin. Although ouabain is not a classical selection drug, the rodent gene for Na—K ATPase shifts the sensitivity into the 10^−4 M range, while human cells are sensitive in the 10^−9 to 10^−6 M range, thus IC50s in the 10^−4 M range were taken to indicate resistance.”
(§6) The drugs, G418, Zeocin, hygromycin, and blasticidin were obtained and used as described earlier. The most important aspect of these studies was to identify the concentration needed to kill all non-transfected cells.

[17] = test system: CRL1440; type: cell-based, human
Description: as §5, with “Each treatment concentration was based on results for at least 3-4 wells.” left out, “Barcelona).” for “Barcelona). Cells were considered to be resistant if the IC50 was >1000 μg/ml for G418, hygromycin, and zeocin, or concentrations >20 μg/ml for blasticidin. Although ouabain is not a classical selection drug, the rodent gene for Na—K ATPase shifts the sensitivity into the 10^−4 M range, while human cells are sensitive in the 10^−9 to 10^−6 M range, thus IC50s in the 10^−4 M range were taken to indicate resistance.”
as §6

[18] = test system: ARPE-19; type: cell-based, human
Description: as §5, with “Each treatment concentration was based on results for at least 3-4 wells.” left out, “Barcelona).” for “Barcelona). Cells were considered to be resistant if the IC50 was >1000 μg/ml for G418, hygromycin, and zeocin, or concentrations >20 μg/ml for blasticidin. Although ouabain is not a classical selection drug, the rodent gene for Na—K ATPase shifts the sensitivity into the 10^−4 M range, while human cells are sensitive in the 10^−9 to 10^−6 M range, thus IC50s in the 10^−4 M range were taken to indicate resistance.”
as §6

[19] = test system: CCL205; type: cell-based, human
Description: as §5, with “Each treatment concentration was based on results for at least 3-4 wells.” left out, “Barcelona).” for “Barcelona). Cells were considered to be resistant if the IC50 was >1000 μg/ml for G418, hygromycin, and zeocin, or concentrations >20 μg/ml for blasticidin. Although ouabain is not a classical selection drug, the rodent gene for Na—K ATPase shifts the sensitivity into the 10^−4 M range, while human cells are sensitive in the 10^−9 to 10^−6 M range, thus IC50s in the 10^−4 M range were taken to indicate resistance.”
as §6

[20] = test system: ARPE-19 polyclones; experiment: Blsd dose-response of growth in BSD-transfected polyclones; type: cell-based, human
Text: (§7) Each cell line was transfected under conditions optimized for that specific cell line, and with each of three different constructs. Within 2-3 days of transfection the cultures were selected with blasticidin at the appropriate selection concentration identified for that cell line.
(§8) The three plasmid constructs tested differed in the promoter used to control the expression of the BSD gene (commercial plasmids from Invitrogen). At the end of selection (10-14 days) the surviving cells were passaged to establish a B1sd-resistant polyclone. Each Blsd-resistant polyclonal cell line was analyzed for the capacity to grow in Blsd at varying concentrations. The Blsd dose-response curve was plotted (growth vs dose) and the IC50 calculated for each promoter construct. The IC50 was taken to indicate the average BSD enzyme expression and activity level, and to indicate the relative activity of the regulatory elements in each cell line context.

[21] = test system: CRL 5803 polyclones; experiment: as above; type: cell-based, human; details: for IC50 for Blsd-resistant growth: CRL 5803
Text: as §7, §8

[22] = test system: CCL205 polyclones; experiment: as above; type: cell-based, human
Text: as §7, §8

[23] = test system: CRL1440 polyclones; experiment: as above; type: cell-based, human
Text: as §7, §8

## O=CC[C@@H](O)[C@H](O)[C@H](O)CO [2-DG, 2-deoxyglucose]
[1]; HTB10 positive control, doses 1-20 mM
  killing by 2-DG: killed with the lowest concentration
[1]; Homo sapiens, HTB10, read-out: 2-DG concentration for 50% killing
  IC50: 600 µM
[2]; Homo sapiens, range over the cell lines, four-parameter fit, read-out: concentrations producing 50% inhibition (IC50) of growth
  IC50: 5000 to 11000 µM
[2]; doses of 2-DG from 1-20 mM
  killing by 2-DG: no killing
[3]
  sensitivity to killing by 2-deoxyglucose: nor was it sensitive to killing
[4]
  viable cells after 2-deoxyglucose: no detectable viable cells

## O=c1[nH]cc(F)c(=O)[nH]1 [5-FU, 5-fluorouracil]
[5]
  concentration of 5-FU that resulted in 50% killing: < 35 µM
[6]
  IC50: ≥ 500 µM
[7]
  5-FU concentration at which killing began: > 500 µM
  5-FU concentration that did not affect the cell line: < 10 µM
  5-FU concentrations with dominantly cytostatic response: 10 to 100 µM
[8]
  5-FU concentrations that slowed growth: > 5 µM
  5-FU doses with killing and growth arrest: > 10 µM
  doubling time after 5-FU exposure: 60 h
  lethal dose of 5-FU: 500 µM
[8]; ARPE-19, 2 weeks of exposure
  effect of 100 μM 5-FU: not a lethal dose
[9]
  IC50: 9 ± 1 µM
[10]
  IC50: 5 ± 1 µM
[11]
  IC50: 8.5 ± 0.3 µM

## O=c1ccc2nc3ccc(O)cc3oc-2c1 [resorufin]
[12]
  concentration toxic with many cells: 1000 to 10000 nM

## C[C@@H]1O[C@@H](O[C@H]2C[C@@H](O)[C@]3(CO)[C@H]4[C@H](O)C[C@]5(C)[C@@H](C6=CC(=O)OC6)CC[C@]5(O)[C@@H]4CC[C@]3(O)C2)[C@H](O)[C@H](O)[C@H]1O [ouabain]
[13]
  resistance or sensitivity to drug: resistant
[14]
  resistance or sensitivity to drug: resistant
[15]
  resistance or sensitivity to drug: resistance

## CN(CC[C@H](N)CC(=O)N[C@H]1C=C[C@H](n2ccc(N)nc2=O)O[C@@H]1C(=O)O)C(=N)N [Blasticidin]
[16]
  concentration found to kill non-transfected cells: 2 µg/mL
[17]
  concentration found to kill non-transfected cells: 1 µg/mL
[18]
  concentration found to kill non-transfected cells: 3 µg/mL
[19]
  concentration found to kill non-transfected cells: 1 µg/mL
[20]; CMV promoter-BSD
  IC50 for Blsd-resistant growth: 12 µg/mL
[20]; EF-1a promoter-BSD
  IC50 for Blsd-resistant growth: 4.5 µg/mL
[20]; UBq promoter-BSD
  IC50 for Blsd-resistant growth: 3 µg/mL
[20]; best promoter
  shift in the inhibitory concentration of Blsd: 8 fold
[21]; CMV promoter-BSD
  IC50 for Blsd-resistant growth: 21 µg/mL
[21]; EF-1α promoter-BSD
  IC50 for Blsd-resistant growth: 3 µg/mL
[21]; UBq promoter-BSD
  IC50 for Blsd-resistant growth: 35 µg/mL
[21]; CRL 5803 control cells transfected with NPT plasmid (no BSD)
  IC50 for growth in Blsd: 1 μg-Blsd/ml
[21]; CRL 5803 polyclones, best promoter
  shift in the inhibitory concentration of Blsd: 30 fold
[22]; CMV promoter
  IC90: > 3 µg/mL
[22]; EF-1 and UBq promoter constructs
  IC90: 0.8 µg/mL (≈ 1.89 µM)
[22]; all three promoter constructs
  growth-based IC50: 0.6 µg/mL
[23]; CMV promoter-BSD
  IC50 for Blsd-resistant growth: 0.6 µg/mL
[23]; EF-1 promoter polyclones
  IC50 for Blsd-resistant growth: 5 µg/mL
[23]; UBq promoter polyclones
  IC50 for Blsd-resistant growth: 21 µg/mL

## CN[C@@H]1[C@@H](O)[C@@H](O[C@@H]2[C@@H](O)[C@H](O[C@H]3O[C@H]([C@@H](C)O)[C@@H](O)[C@H](O)[C@H]3N)[C@@H](N)C[C@H]2N)OC[C@]1(C)O [G418]
[15]
  resistance or sensitivity to drug: sensitive to killing
[16]
  concentration found to kill non-transfected cells: 500 µg/mL
[17]
  concentration found to kill non-transfected cells: 100 µg/mL
[18]
  concentration found to kill non-transfected cells: 175 µg/mL
[19]
  concentration found to kill non-transfected cells: 75 µg/mL

From US20090196854A1, “METHODS AND COMPOSITIONS FOR USE OF CRL 5803 CELLS FOR EXPRESSION OF BIOTHERAPEUTICS AND ENCAPSULATED CELL-BASED DELIVERY” (priority 2008, published 2009)
